From patent US12472259B2, “PKC inhibitors for the treatment of septic cholestasis with polymethine dye targeting” (SMARTDYELIVERY GMBH, priority 2018, dated 2025)

Columns and labels:
[1] = test system: male C57/BL6 mice, PCI model; assay: Survival rate in cholestasis model under septic conditions, peritoneal contamination and infection (PCI); format: in vivo; settings: 4 mg/kg body weight
Procedure: In order to mimic the septic cholestasis, a systemic inflammation was induced using the well-established peritoneal contamination and infection (PCI) model. In this model, a human faeces suspension is applied intraperitoneally (i.p.) and rapidly triggers sepsis with liver dysfunction.
For each batch of human stool, the dose is titrated carefully for a survival between 0% and 20% within two weeks.
To find the adequate dose of stool, different doses were tested. 6 h after i.p. application of the stool, 8-12 weeks old C57/BL6 mice or FVB/N mice were treated with the nanoparticles or the free drug respectively.
A systemic infection/sepsis with organ failure was induced in male C57/BL6 mice by using the PCI model. For this purpose, a human fecal suspension (2.5 μl/g BW for stool batch1 and 6 μl/g for stool batch 2, respectively) was injected intraperitoneally (without anesthesia) with weight adaptation, thus triggering peritonitis with subsequent systemic infection. […] The animals were closely monitored and scored every 6 hours for signs of infection in order to timely. […] With the evaluated dose of 6 μl/g BW stool and additional antibiotic therapy, all mice died within three days, as shown in the Kaplan-Meier-Schatzer diagram (FIG. 11, right panel). […]

[2] = during idelalisib; cited from earlier work
[3] = cited from earlier work

For `O=C1NC(=O)/C(=C\c2ccc3nccnc3c2)S1` [AS605240], the “activity of the free drug alone (dose evaluation, survival)” value [1] was “active”.

With `CN(C)CCCn1cc(C2=C(c3c[nH]c4ccccc34)C(=O)NC2=O)c2ccccc21` [BIM-1] the “activity of the free drug alone (dose evaluation, survival)” value [1] was “active”.

For `CC[C@H](Nc1ncnc2[nH]cnc12)c1nc2cccc(F)c2c(=O)n1-c1ccccc1` [idelalisib], the “risk of developing sepsis as adverse effect compared to placebo” value [2] is listed as “five-fold higher risk”.

In the case of `CO[C@@H]1[C@H](N(C)C(=O)c2ccccc2)C[C@H]2O[C@]1(C)n1c3ccccc3c3c4c(c5c6ccccc6n2c5c31)C(=O)NC4` [midostaurin], the “On-treatment death unrelated to the underlying malignancy” value ([3]; 16 patients, most commonly from infection (sepsis or pneumonia)) is given as 11%, the “Grade≥3 adverse reactions (fatigue, sepsis, gastrointestinal hemorrhage, pneumonia, diarrhea, febrile neutropenia) reported in” value ([3]; patients on midostaurin) is given as ≥ 5% and the “Serious adverse reactions most commonly due to infections and gastrointestinal disorders” value ([3]; patients on midostaurin) is given as 20%. For the same compound, the “Serious adverse reactions reported” value ([3]; patients on midostaurin) was 68 % of patients and the “Treatment discontinuation due to adverse reaction” value ([3]; patients on midostaurin) was 21 % of patients.
